Tests used:
[1] = molar heat capacity at constant pressure; settings: 101.33 kPa
[2] = DSC
[3] = Molar enthalpy of transition or fusion; settings: DSC

C[n+]1ccn(Cc2ccccc2)c1.[Cl-] [1-benzyl-3-methyl-1H-imidazolium chloride]
molar heat capacity at constant pressure [J/K/mol], [1]
Settings | Crystal | Metastable liquid
261.06 K, Small sample (50 mg) DSC | 238.97 | –
265 K, Small sample (50 mg) DSC | 243.67 | –
270 K, Small sample (50 mg) DSC | 252.99 | –
275 K, Small sample (50 mg) DSC | 261.15 | –
277.11 K, Small sample (50 mg) DSC | – | 329.64
280 K, Small sample (50 mg) DSC | 269.17 | 330.72
285 K, Small sample (50 mg) DSC | 278.83 | 332.88
289.14 K, Small sample (50 mg) DSC | 288.47 | –
290 K, Small sample (50 mg) DSC | – | 335.29
295 K, Small sample (50 mg) DSC | – | 338
298.15 K, Drop calorimetry | – | 338.43
300 K, Small sample (50 mg) DSC | – | 340.37
305 K, Small sample (50 mg) DSC | – | 342.49
310 K, Small sample (50 mg) DSC | – | 344.71
315 K, Small sample (50 mg) DSC | – | 346.85
320 K, Small sample (50 mg) DSC | – | 348.98
325 K, Small sample (50 mg) DSC | – | 351.32
330 K, Small sample (50 mg) DSC | – | 353.53
335 K, Small sample (50 mg) DSC | – | 355.73
340 K, Small sample (50 mg) DSC | – | 358
345 K, Small sample (50 mg) DSC | – | 360.85
350 K, Small sample (50 mg) DSC | – | 363.87
355 K, Small sample (50 mg) DSC | – | 367.01

Settings | Glass transition temperature [°C]
[2] | -8.4

C[n+]1ccn(Cc2ccccc2)c1.O=S(=O)([N-]S(=O)(=O)C(F)(F)F)C(F)(F)F
[1], Liquid
Settings | molar heat capacity at constant pressure [J/K/mol]
258.09 K, Small sample (50 mg) DSC | 588.22
263.2 K, Small sample (50 mg) DSC | 589.8
268.3 K, Small sample (50 mg) DSC | 592.39
273.38 K, Small sample (50 mg) DSC | 596.83
278.51 K, Small sample (50 mg) DSC | 597.13
283.61 K, Small sample (50 mg) DSC | 599.43
288.72 K, Small sample (50 mg) DSC | 601.59
293.82 K, Small sample (50 mg) DSC | 603.91
298.15 K, Drop calorimetry | 598.96
298.93 K, Small sample (50 mg) DSC | 606.63
304.03 K, Small sample (50 mg) DSC | 609.41
309.14 K, Small sample (50 mg) DSC | 611.94
314.24 K, Small sample (50 mg) DSC | 615.52
319.35 K, Small sample (50 mg) DSC | 618.97
324.45 K, Small sample (50 mg) DSC | 621.42
329.41 K, Small sample (50 mg) DSC | 624.07
334.67 K, Small sample (50 mg) DSC | 626.99
339.78 K, Small sample (50 mg) DSC | 630.16
344.88 K, Small sample (50 mg) DSC | 633.62
349.99 K, Small sample (50 mg) DSC | 636.94
355.08 K, Small sample (50 mg) DSC | 640.33

Settings | Glass transition temperature [°C]
[2] | -56.4

C[n+]1ccn(Cc2ccccc2)c1.F[B-](F)(F)F [1-benzyl-3-methylimidazolium tetrafluoroborate]
Settings | Molar enthalpy of transition or fusion, [3] [kcal/mol] | Triple point temperature, [2] [K]
Crystal | 4.57 | 346.2
Metastable crystal | 3.97 | 336.5

[1]
Settings | molar heat capacity at constant pressure [J/K/mol]
261.7 K, Crystal, Small sample (50 mg) DSC | 292.62
265 K, Crystal, Small sample (50 mg) DSC | 295.4
270 K, Crystal, Small sample (50 mg) DSC | 299.6
275 K, Crystal, Small sample (50 mg) DSC | 304.74
275.65 K, Metastable crystal, Small sample (50 mg) DSC | 283.68
280 K, Crystal, Small sample (50 mg) DSC | 309.29
280 K, Metastable crystal, Small sample (50 mg) DSC | 287.35
285 K, Crystal, Small sample (50 mg) DSC | 313.98
285 K, Metastable crystal, Small sample (50 mg) DSC | 292.48
290 K, Crystal, Small sample (50 mg) DSC | 319.04
290 K, Metastable crystal, Small sample (50 mg) DSC | 298.09
295 K, Crystal, Small sample (50 mg) DSC | 324.16
295 K, Metastable crystal, Small sample (50 mg) DSC | 303.57
298.15 K, Crystal, Drop calorimetry | 325.85
298.15 K, Metastable crystal, Drop calorimetry | 304.61
300 K, Crystal, Small sample (50 mg) DSC | 329.01
300 K, Metastable crystal, Small sample (50 mg) DSC | 307.82
305 K, Crystal, Small sample (50 mg) DSC | 333.82
305 K, Metastable crystal, Small sample (50 mg) DSC | 312.26
310 K, Crystal, Small sample (50 mg) DSC | 338.5
310 K, Metastable crystal, Small sample (50 mg) DSC | 316.56
315 K, Crystal, Small sample (50 mg) DSC | 343.23
315 K, Metastable crystal, Small sample (50 mg) DSC | 320.92
318.98 K, Metastable crystal, Small sample (50 mg) DSC | 324.78
320 K, Crystal, Small sample (50 mg) DSC | 348.35
325 K, Crystal, Small sample (50 mg) DSC | 353.67
328.42 K, Crystal, Small sample (50 mg) DSC | 356.83
345.5 K, Small sample (50 mg) DSC, Liquid | 417.35
350 K, Small sample (50 mg) DSC, Liquid | 420.2
355 K, Small sample (50 mg) DSC, Liquid | 423.44
357.55 K, Small sample (50 mg) DSC, Liquid | 424.91

Settings | Glass transition temperature [°C]
[2] | -37.8

C[n+]1ccn(Cc2ccccc2)c1.O=S(=O)([O-])C(F)(F)C(F)F
Crystal
Settings | Molar enthalpy of transition or fusion [kcal/mol] | Triple point temperature [K]
[2] | – | 315.4
[3] | 5.64 | –

[1]
Settings | molar heat capacity at constant pressure [J/K/mol]
278.51 K, Crystal, Small sample (50 mg) DSC | 393.57
283.62 K, Crystal, Small sample (50 mg) DSC | 402.07
288.72 K, Crystal, Small sample (50 mg) DSC | 411.24
293.83 K, Crystal, Small sample (50 mg) DSC | 423.44
298.15 K, Crystal, Drop calorimetry | 434.75
298.15 K, Metastable liquid, Drop calorimetry | 509.51
334.67 K, Liquid, Small sample (50 mg) DSC | 527.08
339.77 K, Liquid, Small sample (50 mg) DSC | 530.26
344.88 K, Liquid, Small sample (50 mg) DSC | 533.48
349.98 K, Liquid, Small sample (50 mg) DSC | 537.12
355.09 K, Liquid, Small sample (50 mg) DSC | 540.53

Settings | Glass transition temperature [°C]
[2] | -44.0

Cn1cc[n+](Cc2ccccc2)c1.F[P-](F)(F)(F)(F)F [1-benzyl-3-methylimidazolium hexafluorophosphate]
Crystal
Settings | Molar enthalpy of transition or fusion [kcal/mol] | Triple point temperature [K]
[2] | – | 399.7
[3] | 5.95 | –

[1], Crystal
Settings | molar heat capacity at constant pressure [J/K/mol]
258.09 K, Small sample (50 mg) DSC | 321.38
263.2 K, Small sample (50 mg) DSC | 325.69
268.3 K, Small sample (50 mg) DSC | 330.39
273.41 K, Small sample (50 mg) DSC | 335.64
278.51 K, Small sample (50 mg) DSC | 339.82
283.62 K, Small sample (50 mg) DSC | 344.42
288.72 K, Small sample (50 mg) DSC | 348.47
293.83 K, Small sample (50 mg) DSC | 352.84
298.15 K, Drop calorimetry | 360.42
298.93 K, Small sample (50 mg) DSC | 357.16
304.04 K, Small sample (50 mg) DSC | 361.74
309.14 K, Small sample (50 mg) DSC | 366.16
314.25 K, Small sample (50 mg) DSC | 371.17
319.35 K, Small sample (50 mg) DSC | 376.2
324.46 K, Small sample (50 mg) DSC | 380.3
329.56 K, Small sample (50 mg) DSC | 384.8
334.67 K, Small sample (50 mg) DSC | 389.73
339.77 K, Small sample (50 mg) DSC | 394.64
344.88 K, Small sample (50 mg) DSC | 399.86
349.98 K, Small sample (50 mg) DSC | 404.92
355.09 K, Small sample (50 mg) DSC | 410.63

Settings | Glass transition temperature [°C]
[2] | -28.3

From the NIST ThermoML archive (doi:10.1016/j.jct.2016.04.009)
